US11298383B2, “Lactobacillus and bacillus based direct fed microbial treatment for poultry and method of use” (priority 2016, dated 2022)

Legend:
[1] = tested on: inflammatory cytokine gene expression (MIP2, TNFα, IL-6) in IEC-6 rat intestinal epithelial cells; test: Inflammatory cytokine gene expression (qPCR) in IEC-6 cells with and without LPS challenge (Example 6); assay type: cell-based; settings: LPS alone, 1 hr at 37° C.
[2] = tested on: avian pathogenic Escherichia coli (APEC); test: APEC levels in GI tract of commercial broilers at 12-15 days, with and without in ovo gentamycin (Example 2); assay type: in vivo; settings: GI tract of broilers at 12-15 days of age
[3] = tested on: avian pathogenic Escherichia coli (APEC); assay type: in vivo; settings: 3 days of age; ½ dose in ovo gentamycin; all birds treated with the product

Row | Substance | increase in gene expression of all three inflammatory cytokines (MIP2, TNFα, IL-6) relative to unstimulated control cells [1] [fold] | birds with detectable levels of APEC [2] | average APEC level ([2]; ten birds per treatment) | APEC levels, gentamycin-treated vs untreated birds [3]
1 | Lipopolysaccharide | > 50 |  |  | 
2 | gentamycin |  | 2 out of 10 birds | 6.6×10^1 CFU/g | not statistically different
